Experimental data: patent US7691416B2, “Methods of treating vascular disease” (priority 2002, dated 2010)

Tested on: intimal hyperplasia after balloon injury of the carotid artery
Test: Balloon injury model of the carotid artery
Assay type: in vivo, rat
Conditions: CO 250 ppm for one hour prior to balloon injury; 14 days after injury; n=8-10
From the text: Animals. Male (250-350 g) Brown Norway rats (RT1^n) were used as aortic graft donors and male (250-350 g) Lewis rats (RT11) as recipients. Dawley (400-450 g) rats were used in the balloon injury model. Adult male C57BL/6, C57/S129, p21^−/− and p53^−/− null mice were purchased from Jackson Laboratory (Bar Harbor, Me.). mkk3^(−/−) null mice were generated as described Lu et al. (EMBO. 18:1845-1857 (1999)). The inos^−/− and enos^−/− mice were bred at the University of Pittsburgh. Aortic transplant model. Aortic transplantation was performed as described in Shimizu et al. (Nat. Med. 7:738-741 (2001)). Briefly, 3 to 4 cm of descending aorta was harvested from the donor and implanted between the renal arteries and the aortic bifurcation of the recipient. Both edges of the native abdominal aorta were ligated. Balloon injury model. Balloon angioplasty was carried out as described in Murakami et al. (Atherosclerosis 157:361-368 (2001)). […] [^3H]thymidine incorporation was measured by scintillation spectroscopy and presented as mean counts/min/well. […] Areas from eight to ten captured images were calculated using digital imaging software as number of pixels corresponding to those areas. Twenty-four to forty-eight sections from each group were statistically analyzed with SPSS software version 10. […]

[C-]#[O+] [CO, carbon monoxide]
Intimal hyperplasia, suppression compared to control animals exposed to air: 74±8%
